The target of the experiment is T1, KMO mouse enzyme (Mus musculus, UniProt Q91WN4).
T1 construct: KMO enzyme prepared at Evotec from mouse liver (4-6 weeks old) via mitochondria isolation; from tissue; host or cells: mouse liver (4-6 weeks old), isolated mitochondria
T1 sequence (Q91WN4 whole entry): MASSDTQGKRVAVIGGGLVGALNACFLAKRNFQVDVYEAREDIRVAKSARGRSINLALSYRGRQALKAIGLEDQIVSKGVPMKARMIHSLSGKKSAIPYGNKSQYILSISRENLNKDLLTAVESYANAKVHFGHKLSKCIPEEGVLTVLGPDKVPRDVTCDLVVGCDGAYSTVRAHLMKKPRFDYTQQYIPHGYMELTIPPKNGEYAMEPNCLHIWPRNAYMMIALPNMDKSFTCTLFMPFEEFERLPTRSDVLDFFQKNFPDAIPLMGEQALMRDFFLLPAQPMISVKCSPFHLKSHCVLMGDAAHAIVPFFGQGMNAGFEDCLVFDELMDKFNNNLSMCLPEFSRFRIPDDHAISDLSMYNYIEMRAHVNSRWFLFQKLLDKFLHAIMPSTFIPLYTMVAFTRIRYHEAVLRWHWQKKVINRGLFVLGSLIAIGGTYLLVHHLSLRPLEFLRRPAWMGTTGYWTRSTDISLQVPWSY
Put plainly: KMO enzyme assay monitoring L-Kynurenine hydroxylation to 3OH-KYN by LC/MS (protocols substantially similar to Biology Example 3). The class given is biochemical. As to conditions: compound at 30 μM; KMO enzyme from mouse liver mitochondria; 100 μM L-Kynurenine. Here is the method: A method of monitoring L-Kynurenine (KYN) hydroxylation to form 3-Hydroxy-Kynurenine (3OH-KYN) by LC/MS is described. Product is quantified by multiple reaction monitoring (MRM method).
• Compound: Stock concentrations: 10 mM in 100% DMSO • Enzyme: KMO enzyme prepared at Evotec from mouse liver (4-6 weeks old) via mitochondria isolation as described in the literature • Substrate: L-Kynurenine (Sigma: Cat #K3750, stock concentration: 10 mM in 100 mM potassium phosphate buffer, pH 7.4) Assay Conditions: • Buffer: 100 mM potassium phosphate, pH 7.4, 200 μM NADPH, 0.4 U/ml G6P-DH (Glucose 6-phosphate Dehydrogenase), 3 mM G6P (D-Glucose 6-phosphate) • Assay Volume: 40 μl • Plate Format: 384 well plate, transparent (Matrix) • Read-Out: product (3OH-KYN) quantification using product specific MRM • Reader: LC/MS/MS Assay Protocol: • prepare serial dilution (factor 3) of compound in 100% DMSO (top concentration=10 mM, 100% DMSO) • [[…]: 10 mM; 3.33 mM; 1.11 mM; 0.37 mM; 0.12 mM; 0.04 mM; 0.0137 mM; 0.0045 mM, […]] • prepare 3.33-fold concentrated solution of each compound concentration (top concentration 300 μM, 3% DMSO) in assay buffer • [concentrations: 300 μM; 100 μM; 33.3 μM; 11.1 μM; 3.70 μM; 1.23 μM; 0.41 μM; 0.137 μM] • prepare substrate (10 mM) at concentration of 1 mM in assay buffer • assay mix: 4 μl compound/well of each concentration+24 μl assay buffer/well+8 μl KMO mouse enzyme+4 μl 1 mM substrate (final concentration=100 μM) • [final compound top concentration: 30 μM; 0.3% DMSO] • [final compound bottom concentration: 0.0137 μM; 0.3% DMSO] • positive control: 4 μl 50 μM FCE28833 in assay buffer, 0.5% DMSO [final assay concentration=5 μM]+24 μl assay buffer/well+8 μl KMO mouse enzyme+4 μl mM substrate [final concentration=100 μM] • negative control: 28 μl assay buffer/well+8 μl KMO mouse enzyme+4 μl 1 mM substrate • [final concentration=100 μM] • incubate 40 min at RT • add 40 μl/well 10% trichloro acetic acid in water to stop the assay and precipitate protein • centrifuge plate for 3 min at 4000 rpm • product detection by LC/MS (injection of 20 μl/well, 2 fold overfill of the 10 μl sample loop) Data Analysis:
IC50's are calculated using automated fitting algorithm (A+ Analysis).
Using the assay protocols substantially similar to those of Biology Example 3, the following compounds were tested.
The inhibition is the relative decrease from the control value, in per cent. On to `O=C(O)[C@H]1C[C@@H]1C(=O)c1ccc2c(c1)SCCO2` [Example 3, Method 5, (1S,2S)-2-(2,3-dihydro-1,4-benzoxathiine-6-carbonyl)cyclopropane-1-carboxylic acid], for which the inhibition at 30 µM amounted to 101%. With `O=C(O)[C@H]1C[C@@H]1C(=O)c1ccc2c(c1)CCCO2` [Example 2, Method 4, (1S,2S)-2-(3,4-dihydro-2H-1-benzopyran-6-carbonyl)cyclopropane-1-carboxylic acid], the inhibition at 30 µM amounted to 101%. Consider `O=C(O)[C@H]1C[C@@H]1C(=O)c1ccc2c(c1)OCCO2` [Example 1, Method 4, (1S,2S)-2-(2,3-Dihydro-1,4-benzodioxine-6-carbonyl)cyclopropane-1-carboxylic acid], for which the inhibition at 30 µM was found to be 102%. As for `CC1Cc2cc(C(=O)[C@H]3C[C@@H]3C(=O)O)ccc2O1` (stereo partly drawn) [Example 1, Method 5, (1S,2S)-2-(2-methyl-2,3-dihydro-1-benzofuran-5-carbonyl)cyclopropane-1-carboxylic acid], the inhibition at 30 µM amounted to 103%.

Regarding `CC1COc2c(Cl)cc(C(=O)[C@H]3C[C@@H]3C(=O)O)cc2C1` (stereo partly drawn) [Example 1, Method 7, (1S,2S)-2-(8-Chloro-3-methyl-3,4-dihydro-2H-1-benzopyran-6-carbonyl)cyclo-propane-1-carboxylic acid], the inhibition at 30 µM was 101%.

With `O=C(O)[C@H]1C[C@@H]1C(=O)c1cc(Cl)c2c(c1)OCCO2` [Example 1, Method 8, (1S,2S)-2-(8-Chloro-2,3-dihydro-1,4-benzodioxine-6-carbonyl)cyclopropane-1-carboxylic acid], the inhibition at 30 µM came to 102%. In the case of `O=C(O)[C@H]1C[C@@H]1C(=O)c1ccc2c(c1)OCO2` [Example 4, Method 5, (1S,2S)-2-(2H-1,3-benzodioxole-5-carbonyl)cyclopropane-1-carboxylic acid], the inhibition at 30 µM worked out at 94.1%. As for `Cn1c(=O)oc2c(Cl)cc(C(=O)[C@H]3C[C@@H]3C(=O)O)cc21` [Example 2, Method 3, (1S,2S)-2-(7-Chloro-3-methyl-2-oxo-2,3-dihydro-1,3-benzoxazole-5-carbonyl)cyclopropane-1-carboxylic acid], the inhibition at 30 µM amounted to 101%. `CC1(C)Cc2cc(C(=O)[C@H]3C[C@@H]3C(=O)O)ccc2O1` [Example 2, Method 5, (1S,2S)-2-(2,2-Dimethyl-2,3-dihydro-1-benzofuran-5-carbonyl)cyclopropane-1-carboxylic acid]: the inhibition at 30 µM is 64.8%.

On to `Cn1c(=O)oc2cc(C(=O)[C@H]3C[C@@H]3C(=O)O)cc(Cl)c21` [Example 1, Method 3, (1S,2S)-2-(4-Chloro-3-methyl-2-oxo-2,3-dihydro-1,3-benzoxazole-6-carbonyl)cyclopropane-1-carboxylic acid], for which the inhibition at 30 µM came out at 93.5%. With `CC1Cc2cc(C(=O)[C@H]3C[C@@H]3C(=O)O)cc(Cl)c2O1` (stereo partly drawn) [Example 1, Method 6, (1S,2S)-2-(7-chloro-2-methyl-2,3-dihydro-1-benzofuran-5-carbonyl)-cyclo-propane-1-carboxylic acid] the figure was 100%. As for `O=C(O)[C@H]1C[C@@H]1C(=O)c1cc(Cl)c2c(c1)CCO2` [Example 1, Method 1, (1S, 2S)-2-(7-chloro-2,3-dihydro-1-benzofuran-5-carbonyl)cyclopropane-1-carboxylic acid], the inhibition at 30 µM was determined as 100%. The result for `O=C(O)[C@H]1C[C@@H]1C(=O)c1cc(Cl)c2c(c1)CCCO2` [Example 1, Method 2, (1S, 2S)-2-(8-Chloro-3,4-dihydro-2H-1-benzopyran-6-carbonyl)cyclopropane-1-carboxylic acid] reads 100%. Take `O=C(O)[C@H]1C[C@@H]1C(=O)c1cc(Cl)c2c(c1)OCO2` [Example 1, Method 9, (1S,2S)-2-(7-Chloro-2H-1,3-benzodioxole-5-carbonyl)cyclopropane-1-carboxylic acid]: the inhibition at 30 µM is 102%. With `O=C(O)[C@H]1C[C@@H]1C(=O)c1ccc2c(c1)CCO2` [Example 2, Method 1, (1S,2S)-2-(2,3-dihydro-1-benzofuran-5-carbonyl)cyclopropane-1-carboxylic acid] the figure was 98.7%; with `CC1Oc2cc(C(=O)[C@H]3C[C@@H]3C(=O)O)cc(Cl)c2O1` (stereo partly drawn) [Example 1, Method 10, (1S,2S)-2-(7-Chloro-2-methyl-2H-1,3-benzodioxole-5-carbonyl)cyclopropane-1-carboxylic acid], 102%.
